The target in the assay is T1, AR (Homo sapiens, UniProt P10275, T878A).
T1 construct: into the androgen-dependent PCa cells (LNCaP); endogenous in cells; host or cells: LNCaP-ARR2PB-eGFP
T1 sequence (P10275 1-920 T878A): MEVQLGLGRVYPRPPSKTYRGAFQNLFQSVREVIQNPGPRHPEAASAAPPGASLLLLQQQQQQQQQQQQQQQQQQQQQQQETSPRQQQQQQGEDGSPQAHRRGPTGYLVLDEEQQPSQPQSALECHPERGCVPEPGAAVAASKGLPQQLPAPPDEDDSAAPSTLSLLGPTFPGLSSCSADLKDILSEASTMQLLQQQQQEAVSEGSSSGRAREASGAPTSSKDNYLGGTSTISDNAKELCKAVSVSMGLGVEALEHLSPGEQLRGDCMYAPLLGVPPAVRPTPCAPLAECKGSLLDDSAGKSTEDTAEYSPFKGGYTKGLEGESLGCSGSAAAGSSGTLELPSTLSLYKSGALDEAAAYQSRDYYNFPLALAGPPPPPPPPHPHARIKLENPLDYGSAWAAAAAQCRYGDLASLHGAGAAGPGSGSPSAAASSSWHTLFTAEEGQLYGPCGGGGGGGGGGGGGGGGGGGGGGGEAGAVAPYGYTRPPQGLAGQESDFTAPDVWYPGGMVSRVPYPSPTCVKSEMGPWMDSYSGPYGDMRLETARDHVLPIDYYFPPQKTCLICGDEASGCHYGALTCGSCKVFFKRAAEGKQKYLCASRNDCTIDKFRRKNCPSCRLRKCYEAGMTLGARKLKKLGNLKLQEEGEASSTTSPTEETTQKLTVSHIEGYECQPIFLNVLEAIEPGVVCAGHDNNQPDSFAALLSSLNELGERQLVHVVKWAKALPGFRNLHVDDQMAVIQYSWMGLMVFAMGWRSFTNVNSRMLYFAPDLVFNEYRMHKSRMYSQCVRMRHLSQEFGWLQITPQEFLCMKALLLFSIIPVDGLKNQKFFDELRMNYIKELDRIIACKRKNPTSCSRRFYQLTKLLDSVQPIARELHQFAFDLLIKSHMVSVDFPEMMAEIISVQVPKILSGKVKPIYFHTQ
Nature of the assay: AR transcriptional activity, LNCaP-ARR2PB-eGFP reporter cells. The format is cell-based. The settings on record: read-out: IC50 AR transcriptional activities. An excerpt: Detection principles: We conducted a stable transfection of promoter ARR2PB known for its strong AR responsiveness, into the androgen-dependent PCa cells (LNCaP). The expression of enhanced green fluorescent protein (eGFP) is depending on the degree of activation of AR. Therefore, LNCaP-ARR2PB-eGFP cell line could quantitatively determine the AR antagonistic activities of the compounds by evaluating the expression of eGFP.
As to `Cc1sc(-c2cccc(C#N)c2)cc1C(=O)Nc1nc(CC(C)N2CCCCC2)ns1` (stereo not shown) [Compound C-12, 5-(3-Cyanophenyl)-2-methyl-N-(3-(2-(piperidin-1-yl)propyl)-1,2,4-thiadiazol-5-yl)thiophene-3-carboxamide], the IC50 (in general, the concentration needed to halve the response being measured) was 5.77 µM.

`O=C(Nc1nc(CCl)ns1)c1coc(-c2cccc(C(F)(F)F)c2)c1` [Compound B-40, N-(3-(chloromethyl)-1,2,4-thiadiazol-5-yl)-5-(3-(trifluoromethyl)phenyl)furan-3-carboxamide]: the IC50 amounted to 12.3 µM. The same measure for `CC(=O)Cc1nsc(NC(=O)c2csc(-c3cccc(C#N)c3)c2)n1` [Compound D-2, 5-(3-Cyanophenyl)-N-(3-(2-oxopropyl)-1,2,4-thiadiazol-5-yl)thiophene-3-carboxamide]: 32.6 µM; for `CC(Cc1nsc(NC(=O)c2cc(-c3cccc(C(F)(F)F)c3)oc2C(F)(F)F)n1)N1CCCC1` (stereo not shown) [Compound E-6, N-(3-(2-(pyrrolidin-1-yl)propyl)-1,2,4-thiadiazol-5-yl)-2-(trifluoromethyl)-5-(3-(trifluoromethyl)phenyl) furan-3-carboxamide]: 3.38 µM; for `CC(=O)Cc1nsc(NC(=O)c2cc(-c3cccc(OC(F)(F)F)c3)co2)n1` [Compound G-4, N-(3-(2-oxopropyl)-1,2,4-thiadiazol-5-yl)-4-(3-(trifluoromethoxy)phenyl)furan-2-carboxamide]: 11.6 µM. The same measure for `CC(=O)Cc1nsc(NC(=O)c2cc(-c3ccc4ccccc4c3)oc2C)n1` [Compound A-12, 2-Methyl-5-(naphthalen-2-yl)-N-(3-(2-oxopropyl)-1,2,4-thiadiazol-5-yl)furan-3-carboxamide]: 3.17 µM. The result for `CN1CCN(Cc2nsc(NC(=O)c3csc(-c4cccc(OC(F)F)c4)c3)n2)CC1` [Compound D-58, 5-(3-(Difluoromethoxy)phenyl)-N-(3-((4-methylpiperazin-1-yl)methyl)-1,2,4-thiadiazol-5-yl)thiophene-3-carboxamide] reads 23.7 µM; that for `CN1CCN(Cc2nsc(NC(=O)c3cc(-c4cccc(OC(F)F)c4)co3)n2)CC1` [Compound G-28, 4-(3-(Difluoromethoxy)phenyl)-N-(3-((4-methylpiperazin-1-yl)methyl)-1,2,4-thiadiazol-5-yl)furan-2-carboxamide], 39.2 µM; that for `CC(O)(Cc1nsc(NC(=O)c2cc(-c3cccc(C#N)c3)co2)n1)C(F)(F)F` (stereo not shown) [Compound G-13, 4-(3-Cyanophenyl)-N-(3-(3,3,3-trifluoro-2-hydroxy-2-methylpropyl)-1,2,4-thiadiazol-5-yl) furan-2-carboxamide], 22 µM. As to `CC(F)(F)Cc1nsc(NC(=O)c2cc(-c3cccc(C(F)(F)F)c3)oc2C(F)(F)F)n1` [Compound E-27, N-(3-(2,2-difluoropropyl)-1,2,4-thiadiazol-5-yl)-2-(trifluoromethyl)-5-(3-(trifluoromethyl)phenyl) fura n-3-carboxamide], the IC50 came out at 0.95 µM. The result for `CC(=O)Cc1nsc(NC(=O)c2cc(-c3cccc(Br)c3)oc2C)n1` [Compound A-9, 5-(3-Bromophenyl)-2-methyl-N-(3-(2-oxopropyl)-1,2,4-thiadiazol-5-yl)furan-3-carboxamide] reads 2.36 µM; that for `CN1CCN(Cc2nsc(NC(=O)c3coc(-c4cccc(OC(F)F)c4)c3)n2)CC1` [Compound B-58, 5-(3-(Difluoromethoxy)phenyl)-N-(3-((4-methylpiperazin-1-yl)methyl)-1,2,4-thiadiazol-5-yl)furan-3-carboxamide], 32.6 µM. The same measure for `Cc1oc(C(=O)Nc2nc(CN3CCOCC3)ns2)cc1-c1cccc(OC(F)(F)F)c1` [Compound F-27, 5-Methyl-N-(3-(morpholinomethyl)-1,2,4-thiadiazol-5-yl)-4-(3-(trifluoromethoxy)phenyl)furan-2-carboxamide]: 15.6 µM; for `Cc1sc(-c2cccc(OC(F)F)c2)cc1C(=O)Nc1nc(CN2CCN(C)CC2)ns1` [Compound C-58, 5-(3-(Difluoromethoxy)phenyl)-2-methyl-N-(3-((4-methylpiperazin-1-yl)methyl)-1,2,4-thiadiazol-5-yl)thiophene-3-carboxamide]: 9.79 µM. The same measure for `CC(=O)Cc1nsc(NC(=O)c2cc(-c3cccc([N+](=O)[O-])c3)oc2C)n1` [Compound A-2, 2-Methyl-5-(3-nitrophenyl)-N-(3-(2-oxopropyl)-1,2,4-thiadiazol-5-yl)furan-3-carboxamide]: 0.04 µM; for `CC(=O)Cc1nsc(NC(=O)c2cc(-c3cccc(C#N)c3)sc2C)n1` [Compound C-2, 5-(3-Cyanophenyl)-2-methyl-N-(3-(2-oxopropyl)-1,2,4-thiadiazol-5-yl)thiophene-3-carboxamide]: 33.3 µM. Turning to `Cc1oc(-c2cccc(C(F)(F)F)c2)cc1C(=O)Nc1nc(CC(C)N2CCCC2)ns1` (stereo not shown) [Compound A-40, 2-Methyl-N-(3-(2-(pyrrolidin-1-yl)propyl)-1,2,4-thiadiazol-5-yl)-5-(3-(trifluoromethyl)phenyl)furan-3-carboxamide], the IC50 amounted to 0.23 µM.

`Cc1oc(-c2cccc(C(F)(F)F)c2)cc1C(=O)Nc1nc(CC(C)(C)O)ns1` [Compound A-90, N-(3-(2-hydroxy-2-methylpropyl)-1,2,4-thiadiazol-5-yl)-2-methyl-5-(3-(trifluoromethyl)phenyl)furan-3-carboxamide]: the IC50 worked out at 0.05 µM. The same measure for `CC(Cc1nsc(NC(=O)c2cc(-c3cccc(C#N)c3)co2)n1)N1CCCCC1` (stereo not shown) [Compound G-7, 4-(3-Cyanophenyl)-N-(3-(2-(piperidin-1-yl)propyl)-1,2,4-thiadiazol-5-yl)furan-2-carboxamide]: 23.2 µM; for `Cc1sc(-c2cccc(C(F)(F)F)c2)cc1C(=O)Nc1nc(CCl)ns1` [Compound C-40, N-(3-(chloromethyl)-1,2,4-thiadiazol-5-yl)-2-methyl-5-(3-(trifluoromethyl)phenyl)thiophene-3-carboxamide]: 12.3 µM. Take `CC(=O)Cc1nsc(NC(=O)c2cc(-c3cccc(OC(F)F)c3)oc2C)n1` [Compound A-14, 5-(3-(Difluoromethoxy)phenyl)-2-methyl-N-(3-(2-oxopropyl)-1,2,4-thiadiazol-5-yl)furan-3-carboxamide]: the IC50 is 0.05 µM. Regarding `CNC(C)Cc1nsc(NC(=O)c2cc(-c3cccc(C(F)(F)F)c3)oc2C)n1` (stereo not shown) [Compound A-96, 2-Methyl-N-(3-(2-(methylamino)propyl)-1,2,4-thiadiazol-5-yl)-5-(3-(trifluoromethyl)phenyl)furan-3-carboxamide], the IC50 was found to be 0.16 µM. The same measure for `CC(Cc1nsc(NC(=O)c2cc(-c3cccc(OC(F)(F)F)c3)oc2C(F)(F)F)n1)N1CCOCC1` (stereo not shown) [Compound E-10, N-(3-(2-morpholinopropyl)-1,2,4-thiadiazol-5-yl)-5-(3-(trifluoromethoxy)phenyl)-2-(trifluoromethyl)furan-3-carboxamide]: 0.99 µM; for `Cc1oc(-c2cccc(C(F)(F)F)c2)cc1C(=O)Nc1nc(CN2CCN(C)CC2)ns1` [Compound A-111, 2-Methyl-N-(3-((4-methylpiperazin-1-yl)methyl)-1,2,4-thiadiazol-5-yl)-5-(3-(trifluoro-methyl)phenyl)furan-3-carboxamide]: 0.57 µM. For `Cc1sc(-c2cccc(C(F)(F)F)c2)cc1C(=O)Nc1nc(CC(C)N(C)C)ns1` (stereo not shown) [Compound C-6, N-(3-(2-(dimethylamino)propyl)-1,2,4-thiadiazol-5-yl)-2-methyl-5-(3-(trifluoromethyl)phenyl)thiophene-3-carboxamide], the IC50 turned out to be 33.2 µM. The result for `COc1cccc(-c2cc(C(=O)Nc3nc(CC(C)N4CCCCC4)ns3)cs2)c1` [Compound D-14, 5-(3-Methoxyphenyl)-N-(3-(2-(piperidin-1-yl)propyl)-1,2,4-thiadiazol-5-yl)thiophene-3-carboxamide] reads 37.2 µM; that for `CC(=O)Cc1nsc(NC(=O)c2cc(-c3cccc(OC(F)(F)F)c3)c(C)o2)n1` [Compound F-4, 5-Methyl-N-(3-(2-oxopropyl)-1,2,4-thiadiazol-5-yl)-4-(3-(trifluoromethoxy)phenyl)furan-2-carboxamide], 35.7 µM; that for `Cc1oc(C(=O)Nc2nc(CCl)ns2)cc1-c1cccc(C(F)(F)F)c1` [Compound F-19, N-(3-(chloromethyl)-1,2,4-thiadiazol-5-yl)-5-methyl-4-(3-(trifluoromethyl)phenyl)furan-2-carboxamide], 19.1 µM.

Values taken from US20240376091A1, “THIADIAZOLEAMIDE DERIVATIVES AND THEIR APPLICATIONS” (ZHEJIANG UNIVERSITY, priority 2021, published 2024).
